Literature values, collected in patent US20140023718A1, “PROSTAGLANDIN-CONTAINING FAT EMULSION” (FUJIFILM Corporation, priority 2011, published 2014).

Conditions: 25° C. water

pKa	pKa1	pKa2	SMILES
4.63			CCCC(=O)O [butyric acid]
	3.40	5.13	O=C(O)CC(O)C(=O)O (centres unmarked) [malic acid]
	4.00	5.24	O=C(O)CCC(=O)O [succinic acid]
